One compound from patent publication US10639299B2, “Calcium sensing receptors, ligands, compositions, and methods of use” (Georgia State University Research Foundation, Inc., priority 2016, dated 2020) can be followed below.

In the test the target is T1, hCaSR-ECD (Homo sapiens, UniProt P41180).
T1 construct: made in house; host or cells: HEK293S (GnTI-) suspension culture, secreted
T1 sequence (P41180 20-612): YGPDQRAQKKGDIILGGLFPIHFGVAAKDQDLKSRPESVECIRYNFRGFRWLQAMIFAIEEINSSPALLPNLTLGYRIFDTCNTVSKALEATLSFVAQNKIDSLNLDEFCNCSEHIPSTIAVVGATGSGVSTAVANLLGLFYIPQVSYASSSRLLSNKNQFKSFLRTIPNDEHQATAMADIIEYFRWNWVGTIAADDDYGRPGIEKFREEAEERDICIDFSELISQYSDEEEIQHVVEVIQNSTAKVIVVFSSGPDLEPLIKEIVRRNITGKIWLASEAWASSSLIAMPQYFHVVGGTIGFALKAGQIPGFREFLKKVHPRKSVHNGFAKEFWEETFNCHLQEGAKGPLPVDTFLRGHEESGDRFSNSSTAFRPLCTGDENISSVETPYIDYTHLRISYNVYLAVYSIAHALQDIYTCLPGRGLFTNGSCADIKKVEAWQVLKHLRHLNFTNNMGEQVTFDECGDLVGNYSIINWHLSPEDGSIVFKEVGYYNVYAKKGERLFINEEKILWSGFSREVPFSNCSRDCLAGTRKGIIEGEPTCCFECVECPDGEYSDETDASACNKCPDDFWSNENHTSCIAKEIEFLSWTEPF
As to the kind of experiment: Phenylalanine replacement of TNCA bound to hCaSR-ECD, LC-ESI-MS. It counts as binding. The conditions noted are these: overnight, 838 at 0 mM. The protocol: Considering CaSR ligand is tightly bound with hCaSR-ECD, it is conceivable that hCaSR-ECD has to be denatured to release CaSR ligand. To extract CaSR ligand, 50 μL of purified hCaSR-ECD (10 mg/mL) was mixed with 120 μL acetonitrile and vortexed. After high speed centrifugation, 10 μL of the CaSR ligand extract was injected onto a reverse-phase ACQUITY UPLC BEH C18 column (2.1 mm×100 mm, 1.7-μm particle size; Waters). Column temperature was maintained at 40° C. The flow rate was 0.3 mL/min with starting conditions at 99% solvent A (water+0.1% formic acid) and 1% solvent B (acetonitrile). The 15-min gradient profile for elution was as follows: starting at 1% solvent B and hold for 1 min, then ramping to 98% B at 10 min, hold at 98% B to 12 min, at 12.01 min return to 99% A/1% B and maintain until 15 min. The samples were analyzed by using a Waters Xevo G2-XS QToF LC-MS interfaced to a Waters Acquity UPLC system. […] Fragmentation, formula, and abundances were analyzed with Waters MassLynx Software.
A phenylalanine replacement experiment was carried out by mixing purified hCaSR-ECD protein (0.26 mg/mL) with phenylalanine (final concentrations are 0, 50 and 150 mM, respectively). […] The protein samples were adjusted to the same concentration using SEC buffer and analyzed by LC-ESI-MS.

With `N[C@@H](Cc1ccccc1)C(=O)O` [Phe, phenylalanine], the “area under the MS peak of TNCA remaining bound to hCaSR-ECD” value amounted to 180 (50 mM phenylalanine) and 76 (150 mM phenylalanine).
